This note sets out measurements from ChEMBL document CHEMBL4265965, “Dichloroacetophenones targeting at pyruvate dehydrogenase kinase 1 with improved selectivity and antiproliferative activity: Synthesis and structure-activity relationships” (Bioorg Med Chem Lett, 2018).

Test [1] concerns NCI-H1975. Nature of the test: Antiproliferative activity against human NCI-H1975 cells assessed as inhibition of cell proliferation at 2 uM after 72 hrs by MTT assay relative to control. In kind it is functional. To be noted: for inhibition at 2 µM: NCI-H1975, 72 h. (In general: Formazan colour is commonly taken as a measure of viable cells.)
The subject of test [2] is A549. Nature of the test: Antiproliferative activity against human A549 cells assessed as inhibition of cell proliferation at 12 uM after 72 hrs by MTT assay relative to control. Format: functional. To be noted: A549, 72 h.
The test system of test [3] is A549. Nature of the test: Antiproliferative activity against human A549 cells assessed as inhibition of cell proliferation at 2 uM after 72 hrs by MTT assay relative to control. Format: functional. To be noted: for inhibition at 2 µM: A549, 72 h.
The test system of test [4] is NCI-H1975. Nature of the test: Antiproliferative activity against human NCI-H1975 cells assessed as inhibition of cell proliferation at 12 uM after 72 hrs by MTT assay relative to control. Format: functional. To be noted: NCI-H1975, 72 h.
In test [5] the target is [Pyruvate dehydrogenase (acetyl-transferring)] kinase isozyme 1, mitochondrial (Homo sapiens, UniProt Q15118). Nature of the test: Inhibition of recombinant human N-terminal His6/Sumo-tagged PDK1 (29 to 436 residues) expressed in Escherichia coli BL21 at 1 uM by kinase-glo luminescence assay relative to control. In general terms: In Kinase-Glo more light means more ATP remaining.

Test [6] concerns A549. Put plainly: Antiproliferative activity against human A549 cells assessed as inhibition of cell proliferation at 6 uM after 72 hrs by MTT assay relative to control. Format: functional. To be noted: A549, 72 h.
Test [7] deals with NCI-H1650. Nature of the test: Antiproliferative activity against human NCI-H1650 cells assessed as inhibition of cell proliferation at 12 uM after 72 hrs by MTT assay relative to control. Format: functional. To be noted: NCI-H1650, 72 h.
In test [8] the test system is NCI-H1650. Nature of the test: Antiproliferative activity against human NCI-H1650 cells assessed as inhibition of cell proliferation at 6 uM after 72 hrs by MTT assay relative to control. In kind it is functional. The following applies: NCI-H1650, 72 h.
Test [9] relates to NCI-H1975. Nature of the test: Antiproliferative activity against human NCI-H1975 cells assessed as inhibition of cell proliferation at 6 uM after 72 hrs by MTT assay relative to control. In kind it is functional. The following applies: NCI-H1975, 72 h.
Test [10] relates to NCI-H1650. Nature of the test: Antiproliferative activity against human NCI-H1650 cells assessed as inhibition of cell proliferation at 2 uM after 72 hrs by MTT assay relative to control. Format: functional. The following applies: NCI-H1650, 72 h.

Activity calls are given as the source filed them. The calls are words filed in the database; no cut-off is given here.

By inhibition is commonly meant the percentage by which the read-out fell short of the control. For the compound `CCc1ccc(C(=O)C(Cl)Cl)cc1`, the inhibition at 2 µM in [1] was 55.4%; in test [3], 31.5%; in [10], 30.7%. For the same compound, the inhibition at 12 µM is 92.8% in test [2], 96.5% in [4] and 99.3% in test [7]. Besides, in [5], the inhibition is 44%. For the same compound, the inhibition at 6 µM amounted to 81.4% in [6], 79.1% in test [8] and 97.6% in [9].
Take `CCOc1ccc(C(=O)C(Cl)Cl)cc1`: the inhibition at 2 µM in test [1] is 22.6%; in [3], 18.9%; in test [10], 22.3%. Also, the inhibition at 12 µM worked out at 80.9% in test [2], 98.6% in test [4] and 90.2% in test [7]. The inhibition in test [5] fell in the range of 19.7 to 67.9%. For the same compound, the values for the inhibition at 6 µM in test [6], in test [8] and in [9] were 31.6%, 50.4% and 89%, respectively.
`Cc1ccc(C(=O)C(Cl)Cl)cc1`: the figures for the inhibition at 2 µM in test [1] and in test [10] were 28.6% and 31.2%, respectively. Besides, the inhibition at 12 µM in [2] came out at 80%; in [4], 95.7%; in test [7] it was 78.4%. The inhibition result in [3] is “inactive”. Moreover, the inhibition in test [5] amounted to 19.7%. Further, the inhibition at 6 µM in [6] was 33.2%; in [8], 54.3%; in test [9] it was 83.1%.
Take `O=C(c1ccccc1C(F)(F)F)C(Cl)Cl`: the inhibition result in test [1] and in test [5] was “inactive” throughout. The inhibition at 12 µM amounted to 8.3% in test [2], 10.2% in test [4] and 16.7% in test [7]. Moreover, the inhibition at 2 µM in test [3] is 3%; in test [10] it was 8.1%. Further, the figures for the inhibition at 6 µM in test [6], in test [8] and in test [9] were 9%, 12.7% and 2.1%, respectively.
In the case of `Cc1ccccc1C(=O)C(Cl)Cl`, the inhibition at 2 µM in [1] is 39.8%; in [3], 23.7%; in test [10] it was 27.2%. The figures for the inhibition at 12 µM in test [2], in [4] and in test [7] were 79.8%, 93% and 69.6%, respectively. In addition, the inhibition result in test [5] was “inactive”. The inhibition at 6 µM in [6] was 62.2%; in test [8] it was 46.7%; in test [9], 69.8%.
For `O=C(c1ccccc1I)C(Cl)Cl`, the inhibition at 2 µM in [1] was 28.6%; in test [10] it was 21%. Besides, the inhibition at 12 µM in test [2] was 41.2%; in test [4], 96.5%; in test [7], 99.4%. For the same compound, the inhibition result in test [3] and in [5] was “inactive” in each case. Also, the inhibition at 6 µM in test [6] is 7.8%; in test [8], 57.1%; in [9] it was 90.8%.
As for `COc1ccc(C(=O)C(Cl)Cl)cc1`, the inhibition at 2 µM in test [1] was found to be 35.1%; in test [3] it was 7.5%; in test [10] it was 32.5%. Moreover, the inhibition at 12 µM in test [2] was found to be 86.1%; in [4], 98.3%; in [7], 84.9%. Besides, the inhibition in test [5] lay in the range of 19.7 to 67.9%. In addition, the figures for the inhibition at 6 µM in [6], in [8] and in test [9] were 50.1%, 56.8% and 95.8%, respectively.
As for `Cc1ccc(C(=O)C(Cl)Cl)cc1[N+](=O)[O-]`, the inhibition at 2 µM in test [1] stood at 15.8%; in [3], 12.6%; in [10], 15.4%. Further, the inhibition at 12 µM was determined as 89.5% in [2], 99.7% in test [4] and 94.6% in test [7]. Moreover, in test [5], the inhibition turned out to be 50.5%. Further, the inhibition at 6 µM turned out to be 67.8% in test [6], 69.8% in test [8] and 89.5% in test [9].
